{
  "source": "patent US7687473B2",
  "about": "“5-amino-4-imidazolecarboxamide riboside and its nucleobase as potentiators of antifolate transport and metabolism” (Health Research, Inc., priority 2005, dated 2010)",
  "system": "CCRF-CEM cells",
  "experiment": "[3H]leucovorin uptake in CCRF-CEM cells",
  "type": "cell-based, human",
  "details": "pre-incubation with Z alone, 1 μM [3H]LV",
  "protocol": "Quantitation of folate and antifolate uptake. The method is essentially as follows. Briefly, logarithmically growing (3-5×10^5/ml) CCRF-CEM cells were harvested at room temperature by centrifugation at 1000×g for 5 min. After washing with the appropriate medium, cells were suspended at ≈2×10^7 cells/ml for use in transport studies. […] Anion-free MHS contains 250 mM sucrose and 20 mM HEPES, titrated to pH 7.4 with MgO. […] Uptake was measured as a function of time for 30 min (for rate and extent measurements) or over 5 min (studies requiring initial velocities). […] Uptake was terminated by diluting 100 μL samples into 1 ml of iced 0.9% NaCl. […] The supernatant was aspirated. The cell pellet was washed once with 1 ml iced 0.9% NaCl and centrifuged as above. The washed pellet was solubilized in 1 ml of 0.3% Triton X-100 by incubation for 60 min at 37° C. The solubilized pellet was transferred to a scintillation vial, 10 ml of Liquiscint (National Diagnostics, Atlanta, Ga.) was added and radioactivity was quantitated in a Beckman Model LS6500 liquid scintillation counter. Separate samples at the longest incubation time used in a particular experiment were harvested for HPLC analysis of intracellular contents as above, except that after the second wash the pellets were extracted with 1 ml boiling 0.1 M Na-phosphate, pH 5.5. The extract was clarified by centrifugation and the supernatant was filtered through an MPS-1 filter unit (Amicon) prior to HPLC analysis.",
  "data": [
    {"smiles": "NC(=O)c1ncn([C@@H]2O[C@H](CO)[C@@H](O)[C@H]2O)c1N", "note": "[Z, 5-amino-4-imidazolecarboxamide riboside]", "values": [
      {"measurement": "Potentiation of [3H]LV uptake", "value": "does not potentiate"}
    ]}
  ]
}
